Assay results reported in ChEMBL document CHEMBL3885861, “Open TG-GATES”.

Organism: Rattus norvegicus
Experiment: Open TG-GATES - Regimen: Single
Assay type: toxicity, organism-based, Sprague-Dawley
Design: regimen Single, gender Male, age 6 weeks
Conditions: in vivo, iv, route intravenous injection; for APTT / Bas / Eos / Fbg / Hb / Ht / Lym / MCH / MCHC / MCV / Mono / PT / Plat / RBC / Ret / WBC: tissue Blood; for KIDNEY_L / KIDNEY_R / KIDNEY_TOTAL: tissue Kidney; for LIVER: tissue Liver; for ALP / ALT / AST / BUN / CRE / Ca / Cl / DBIL / GLC / IP / K / LDH / Na / PL / RALB / TBIL / TC / TG / TP / gamma-GTP: tissue Plasma
[1] = 1000 mg/kg, 3 h, dose level Middle
[2] = 1000 mg/kg, 6 h, dose level Middle
[3] = 1000 mg/kg, 9 h, dose level Middle
[4] = 1000 mg/kg, 24 h, dose level Middle
[5] = 2000 mg/kg, 3 h, dose level High
[6] = 2000 mg/kg, 6 h, dose level High
[7] = 2000 mg/kg, 9 h, dose level High
[8] = 2000 mg/kg, 24 h, dose level High

CC(=O)OCC1=C(C(=O)O)N2C(=O)[C@@H](NC(=O)Cc3cccs3)[C@H]2SC1 [CEPHALOTHIN]
TERMINAL_BW [1]: 212.6 g
APTT [1]: 22.3 s
Bas [1]: 0%
Eos [1]: 0.4%
Fbg [1]: 266.6 mg/dL
Hb [1]: 13.2 g/dL
Ht [1]: 38.5%
Lym [1]: 72%
MCH [1]: 21.3 pg
MCHC [1]: 34.3%
MCV [1]: 62 fL
Mono [1]: 3.2%
PT [1]: 16.3 s
Plat [1]: 116.5 x10_4/uL
RBC [1]: 622 x10_4/ul
Ret [1]: 5.8%
WBC [1]: 76.3 x10_2/uL
KIDNEY_L [1]: 0.9 g
KIDNEY_R [1]: 0.9 g
KIDNEY_TOTAL [1]: 1.9 g
LIVER [1]: 10 g
ALP [1]: 1462.8 IU/L
ALT [1]: 52.4 IU/L
AST [1]: 101 IU/L
BUN [1]: 12.6 mg/dL
CRE [1]: 0.2 mg/dL
Ca [1]: 10.8 mg/dL
Cl [1]: 105.2 meq/L
DBIL [1]: 0 mg/dL
GLC [1]: 173 mg/dL
IP [1]: 8.5 mg/dL
K [1]: 4.3 meq/L
LDH [1]: 207.6 IU/L
Na [1]: 141.8 meq/L
PL [1]: 141.2 mg/dL
RALB [1]: 2.9 g/dL
TBIL [1]: 0.02 mg/dL
TC [1]: 68.8 mg/dL
TG [1]: 132.8 mg/dL
TP [1]: 5.2 g/dL
gamma-GTP [1]: 1.2 IU/L
TERMINAL_BW [2]: 218.3 g
APTT [2]: 24.1 s
Bas [2]: 0%
Eos [2]: 1%
Fbg [2]: 281.6 mg/dL
Hb [2]: 13.1 g/dL
Ht [2]: 38.6%
Lym [2]: 76.4%
MCH [2]: 21.1 pg
MCHC [2]: 34%
MCV [2]: 62.1 fL
Mono [2]: 2.4%
PT [2]: 16.2 s
Plat [2]: 135.7 x10_4/uL
RBC [2]: 622 x10_4/ul
Ret [2]: 6.3%
WBC [2]: 78.7 x10_2/uL
KIDNEY_L [2]: 1 g
KIDNEY_R [2]: 1 g
KIDNEY_TOTAL [2]: 1.9 g
LIVER [2]: 9.4 g
ALP [2]: 1381.4 IU/L
ALT [2]: 39.2 IU/L
AST [2]: 91.4 IU/L
BUN [2]: 12.8 mg/dL
CRE [2]: 0.2 mg/dL
Ca [2]: 10.5 mg/dL
Cl [2]: 106.2 meq/L
DBIL [2]: 0.002 mg/dL
GLC [2]: 175.4 mg/dL
IP [2]: 8.9 mg/dL
K [2]: 4.5 meq/L
LDH [2]: 176 IU/L
Na [2]: 141.4 meq/L
PL [2]: 127.8 mg/dL
RALB [2]: 2.8 g/dL
TBIL [2]: 0.018 mg/dL
TC [2]: 61.6 mg/dL
TG [2]: 115.2 mg/dL
TP [2]: 5.2 g/dL
gamma-GTP [2]: 1.2 IU/L
TERMINAL_BW [3]: 213.7 g
APTT [3]: 22.5 s
Bas [3]: 0%
Eos [3]: 1%
Fbg [3]: 293.2 mg/dL
Hb [3]: 13 g/dL
Ht [3]: 38.2%
Lym [3]: 73.4%
MCH [3]: 20.9 pg
MCHC [3]: 34%
MCV [3]: 61.6 fL
Mono [3]: 2.2%
PT [3]: 16.1 s
Plat [3]: 128.3 x10_4/uL
RBC [3]: 620.4 x10_4/ul
Ret [3]: 6.8%
WBC [3]: 74.6 x10_2/uL
KIDNEY_L [3]: 1 g
KIDNEY_R [3]: 1 g
KIDNEY_TOTAL [3]: 1.9 g
LIVER [3]: 8.9 g
ALP [3]: 1218.6 IU/L
ALT [3]: 33.2 IU/L
AST [3]: 75.4 IU/L
BUN [3]: 11 mg/dL
CRE [3]: 0.2 mg/dL
Ca [3]: 10.5 mg/dL
Cl [3]: 107.2 meq/L
DBIL [3]: 0 mg/dL
GLC [3]: 176.6 mg/dL
IP [3]: 9.1 mg/dL
K [3]: 4.5 meq/L
LDH [3]: 150 IU/L
Na [3]: 141.6 meq/L
PL [3]: 138.8 mg/dL
RALB [3]: 2.9 g/dL
TBIL [3]: 0.018 mg/dL
TC [3]: 72 mg/dL
TG [3]: 90.2 mg/dL
TP [3]: 5.4 g/dL
gamma-GTP [3]: 1.6 IU/L
TERMINAL_BW [4]: 219.2 g
APTT [4]: 22.5 s
Bas [4]: 0%
Eos [4]: 1%
Fbg [4]: 309.8 mg/dL
Hb [4]: 13.5 g/dL
Ht [4]: 39.4%
Lym [4]: 81.4%
MCH [4]: 20.7 pg
MCHC [4]: 34.3%
MCV [4]: 60.5 fL
Mono [4]: 2.4%
PT [4]: 16.3 s
Plat [4]: 124.3 x10_4/uL
RBC [4]: 651.8 x10_4/ul
Ret [4]: 5.1%
WBC [4]: 73.5 x10_2/uL
KIDNEY_L [4]: 1 g
KIDNEY_R [4]: 1 g
KIDNEY_TOTAL [4]: 1.9 g
LIVER [4]: 9.5 g
ALP [4]: 1371.4 IU/L
ALT [4]: 48 IU/L
AST [4]: 76.8 IU/L
BUN [4]: 15.8 mg/dL
CRE [4]: 0.2 mg/dL
Ca [4]: 10.6 mg/dL
Cl [4]: 106.8 meq/L
DBIL [4]: 0 mg/dL
GLC [4]: 190.8 mg/dL
IP [4]: 6.7 mg/dL
K [4]: 4.2 meq/L
LDH [4]: 146.8 IU/L
Na [4]: 143 meq/L
PL [4]: 148.8 mg/dL
RALB [4]: 3.1 g/dL
TBIL [4]: 0.012 mg/dL
TC [4]: 80.6 mg/dL
TG [4]: 79.4 mg/dL
TP [4]: 5.7 g/dL
gamma-GTP [4]: 1.6 IU/L
TERMINAL_BW [5]: 214.8 g
APTT [5]: 23.6 s
Bas [5]: 0%
Eos [5]: 0.4%
Fbg [5]: 277.6 mg/dL
Hb [5]: 13.6 g/dL
Ht [5]: 39.4%
Lym [5]: 66.4%
MCH [5]: 21.1 pg
MCHC [5]: 34.5%
MCV [5]: 61.3 fL
Mono [5]: 3.6%
PT [5]: 16.6 s
Plat [5]: 131.7 x10_4/uL
RBC [5]: 644 x10_4/ul
Ret [5]: 6.1%
WBC [5]: 63.2 x10_2/uL
KIDNEY_L [5]: 0.9 g
KIDNEY_R [5]: 1 g
KIDNEY_TOTAL [5]: 1.9 g
LIVER [5]: 9.6 g
ALP [5]: 1568.4 IU/L
ALT [5]: 46.4 IU/L
AST [5]: 94.6 IU/L
BUN [5]: 12.2 mg/dL
CRE [5]: 0.2 mg/dL
Ca [5]: 10.7 mg/dL
Cl [5]: 104.4 meq/L
DBIL [5]: 0.002 mg/dL
GLC [5]: 173.2 mg/dL
IP [5]: 9.3 mg/dL
K [5]: 4.2 meq/L
LDH [5]: 214.4 IU/L
Na [5]: 141.8 meq/L
PL [5]: 136 mg/dL
RALB [5]: 2.9 g/dL
TBIL [5]: 0.016 mg/dL
TC [5]: 68.2 mg/dL
TG [5]: 79.8 mg/dL
TP [5]: 5.4 g/dL
gamma-GTP [5]: 1.2 IU/L
TERMINAL_BW [6]: 214.6 g
APTT [6]: 23 s
Bas [6]: 0%
Eos [6]: 0.4%
Fbg [6]: 279.2 mg/dL
Hb [6]: 13.4 g/dL
Ht [6]: 39.1%
Lym [6]: 67.4%
MCH [6]: 21 pg
MCHC [6]: 34.3%
MCV [6]: 61.1 fL
Mono [6]: 3%
PT [6]: 16.3 s
Plat [6]: 121.3 x10_4/uL
RBC [6]: 639.8 x10_4/ul
Ret [6]: 5.9%
WBC [6]: 81.2 x10_2/uL
KIDNEY_L [6]: 1 g
KIDNEY_R [6]: 1.1 g
KIDNEY_TOTAL [6]: 2.1 g
LIVER [6]: 9.2 g
ALP [6]: 1347.4 IU/L
ALT [6]: 42.6 IU/L
AST [6]: 95.8 IU/L
BUN [6]: 12 mg/dL
CRE [6]: 0.1 mg/dL
Ca [6]: 10.6 mg/dL
Cl [6]: 105 meq/L
DBIL [6]: 0.002 mg/dL
GLC [6]: 171.6 mg/dL
IP [6]: 9.4 mg/dL
K [6]: 4.4 meq/L
LDH [6]: 182.6 IU/L
Na [6]: 141.2 meq/L
PL [6]: 145 mg/dL
RALB [6]: 2.9 g/dL
TBIL [6]: 0.022 mg/dL
TC [6]: 73.6 mg/dL
TG [6]: 136.6 mg/dL
TP [6]: 5.3 g/dL
gamma-GTP [6]: 1.2 IU/L
TERMINAL_BW [7]: 210.5 g
APTT [7]: 21.8 s
Bas [7]: 0%
Eos [7]: 1%
Fbg [7]: 290.8 mg/dL
Hb [7]: 13.4 g/dL
Ht [7]: 39.2%
Lym [7]: 70.8%
MCH [7]: 21 pg
MCHC [7]: 34.2%
MCV [7]: 61.4 fL
Mono [7]: 2.8%
PT [7]: 16.3 s
Plat [7]: 122.1 x10_4/uL
RBC [7]: 638.8 x10_4/ul
Ret [7]: 5.8%
WBC [7]: 69.5 x10_2/uL
KIDNEY_L [7]: 1 g
KIDNEY_R [7]: 1 g
KIDNEY_TOTAL [7]: 2 g
LIVER [7]: 8.6 g
ALP [7]: 1382 IU/L
ALT [7]: 39.4 IU/L
AST [7]: 90 IU/L
BUN [7]: 10.4 mg/dL
CRE [7]: 0.1 mg/dL
Ca [7]: 10.5 mg/dL
Cl [7]: 106 meq/L
DBIL [7]: 0 mg/dL
GLC [7]: 176 mg/dL
IP [7]: 9.3 mg/dL
K [7]: 4.5 meq/L
LDH [7]: 162.6 IU/L
Na [7]: 141 meq/L
PL [7]: 134.4 mg/dL
RALB [7]: 2.9 g/dL
TBIL [7]: 0.028 mg/dL
TC [7]: 66.4 mg/dL
TG [7]: 101.2 mg/dL
TP [7]: 5.3 g/dL
gamma-GTP [7]: 1.2 IU/L
TERMINAL_BW [8]: 223.7 g
APTT [8]: 21.3 s
Bas [8]: 0%
Eos [8]: 0.8%
Fbg [8]: 339.2 mg/dL
Hb [8]: 13.5 g/dL
Ht [8]: 38.6%
Lym [8]: 83.6%
MCH [8]: 20.4 pg
MCHC [8]: 34.8%
MCV [8]: 58.4 fL
Mono [8]: 2.4%
PT [8]: 16.2 s
Plat [8]: 117.9 x10_4/uL
RBC [8]: 661.4 x10_4/ul
Ret [8]: 5.4%
WBC [8]: 77.7 x10_2/uL
KIDNEY_L [8]: 1 g
KIDNEY_R [8]: 1 g
KIDNEY_TOTAL [8]: 2 g
LIVER [8]: 9 g
ALP [8]: 1511.8 IU/L
ALT [8]: 44.8 IU/L
AST [8]: 78.6 IU/L
BUN [8]: 15.6 mg/dL
CRE [8]: 0.2 mg/dL
Ca [8]: 10.6 mg/dL
Cl [8]: 106 meq/L
DBIL [8]: 0.004 mg/dL
GLC [8]: 183 mg/dL
IP [8]: 7.3 mg/dL
K [8]: 4.4 meq/L
LDH [8]: 162 IU/L
Na [8]: 142.2 meq/L
PL [8]: 143.8 mg/dL
RALB [8]: 3.1 g/dL
TBIL [8]: 0.02 mg/dL
TC [8]: 74.6 mg/dL
TG [8]: 76 mg/dL
TP [8]: 5.7 g/dL
gamma-GTP [8]: 1.6 IU/L
